Here are results for 1 compound from patent US9289425B2, “Intranasal naloxone compositions and methods of making and using same” (priority 2013, dated 2016).

Series [1] in a line: Physicochemical properties of naloxone stated in the description. Conditions: pH of about 5.5 to 6.5. The text has this: Specifically, naloxone is known to have a pKa of about 8. For nasal formulations, wherein transmucosal delivery is desired, it is generally considered advantageous, if not necessary, to ensure that an active agent is primarily in an un-ionized state, as unionized species pass through membranes more easily than ionized species. […] The nasal mucosal is at a pH of about 5.5 to 6.5, a pH at which Applicant has found naloxone is unstable.
Naloxone prevents or reverses the effects of opioids including respiratory depression, sedation and hypotension. Also, it can reverse the psychotomimetic and dysphoric effects of agonist-antagonists such as pentazocine. […] In the presence of physical dependence on opioids, naloxone will produce withdrawal symptoms. However, in the presence of opioid dependence, withdrawal symptoms will appear within minutes of naloxone administration and will subside in about 2 hours. The severity and duration of the withdrawal syndrome are related to the dose and route of administration of naloxone and to the degree and type of dependence.

For series [2] the following is noted: cited from earlier work.

Structures can show the parent of a compound that is named as a salt. Where two headings read alike, the source gives them in different places.

Regarding `C=CCN1CC[C@]23c4c5ccc(O)c4O[C@H]2C(=O)CC[C@@]3(O)[C@H]1C5` [naloxone, 17-allyl-4,5α-epoxy, 3-14-dihydroxymorphinan-6-one hydrochloride], the “stability versus pH” value in series [1] is listed as “unstable”. Besides, in series [2], the pKa entry is recorded as “about 8”. For the same compound, the solubility result in series [2] (in alcohol) is recorded as “slightly soluble”; in series [2] (in ether and in chloroform), “practically insoluble”; in series [2] (in water, in dilute acids, and in strong alkali), “soluble”.
